In the supplement of paper PMC10883282:
± gives the standard deviation of the averaged measurements.

Legend:
Test in all cases: relative viability vs DMSO control (72 h) (fraction); higher = more viable cells
A204 = test system: A204
In short: (§1)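 Plates held 72 h at 37 °C and 5% CO2 contained sarcoma cell lines seeded in 384-well format to reach 80–90% confluence, plus 2.5 µl of serially diluted compound added after 24 h. Source plate concentrations ran from 10 mM to 0.0002 mM, with 0.1% DMSO as vehicle and a 5 µM positive control. Percent growth from ATPLite readings, averaged over up to triplicate wells, gave relative viability. Values were rescaled with 1 as full and 0 as none.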

G401 = test system: G401
In short: as §1

HS729 = test system: HS729
In short: as §1

HT1080 = test system: HT1080
In short: as §1

KHOS-NP = test system: KHOS-NP
In short: as §1

MES-SA = test system: MES-SA
In short: as §1

SK-LMS-1 = test system: SK-LMS-1
In short: as §1

SW1353 = test system: SW1353
In short: as §1

SW684 = test system: SW684
In short: as §1

SW872 = test system: SW872
In short: as §1

SYO-1 = test system: SYO-1
In short: as §1

VA-ES-BJ = test system: VA-ES-BJ
In short: as §1

CC1(C)CC=C(c2nc(C3CC(C)(C)OC(C)(C)C3)ccc2NC(=O)c2nc(C#N)c[nH]2)CC1 [Edicotinib]
Settings	relative viability
A204, 0.00017 µM	1.08 ± 0.048
A204, 0.00051 µM	1.06 ± 0.049
A204, 0.00152 µM	1.06 ± 0.066
A204, 0.00457 µM	1.05 ± 0.029
A204, 0.01372 µM	1.08 ± 0.048
A204, 0.04115 µM	1.06 ± 0.077
A204, 0.1235 µM	1.03 ± 0.048
A204, 0.3704 µM	1.05 ± 0.078
A204, 1.111 µM	1.04 ± 0.051
A204, 3.333 µM	1.07 ± 0.042
A204, 10 µM	1.08 ± 0.03
G401, 0.00017 µM	1.02 ± 0.033
G401, 0.00051 µM	0.99 ± 0.039
G401, 0.00152 µM	1 ± 0.034
G401, 0.00457 µM	1.01 ± 0.042
G401, 0.01372 µM	1.04 ± 0.011
G401, 0.04115 µM	0.9919 ± 0.0064
G401, 0.1235 µM	1.02 ± 0.053
G401, 0.3704 µM	1 ± 0.017
G401, 1.111 µM	0.952 ± 0.021
G401, 3.333 µM	0.989 ± 0.052
G401, 10 µM	0.929 ± 0.018
HS729, 0.00017 µM	1 ± 0.015
HS729, 0.00051 µM	0.931 ± 0.048
HS729, 0.00152 µM	0.953 ± 0.079
HS729, 0.00457 µM	0.909 ± 0.028
HS729, 0.01372 µM	0.89 ± 0.022
HS729, 0.04115 µM	0.902 ± 0.038
HS729, 0.1235 µM	0.924 ± 0.0098
HS729, 0.3704 µM	0.9 ± 0.0098
HS729, 1.111 µM	0.894 ± 0.046
HS729, 3.333 µM	0.933 ± 0.059
HS729, 10 µM	0.999 ± 0.02
HT1080, 0.00017 µM	1.03 ± 0.036
HT1080, 0.00051 µM	1.07 ± 0.024
HT1080, 0.00152 µM	1.03 ± 0.021
HT1080, 0.00457 µM	1.041 ± 0.0018
HT1080, 0.01372 µM	1.04 ± 0.058
HT1080, 0.04115 µM	1.03 ± 0.044
HT1080, 0.1235 µM	1.037 ± 0.002
HT1080, 0.3704 µM	1.021 ± 0.0094
HT1080, 1.111 µM	0.9787 ± 0.0021
HT1080, 3.333 µM	1.019 ± 0.0056
HT1080, 10 µM	0.993 ± 0.047
KHOS-NP, 0.00017 µM	1.03 ± 0.033
KHOS-NP, 0.00051 µM	1.03 ± 0.035
KHOS-NP, 0.00152 µM	1.04 ± 0.055
KHOS-NP, 0.00457 µM	1.04 ± 0.044
KHOS-NP, 0.01372 µM	1.03 ± 0.04
KHOS-NP, 0.04115 µM	1.04 ± 0.033
KHOS-NP, 0.1235 µM	1.05 ± 0.029
KHOS-NP, 0.3704 µM	1.04 ± 0.016
KHOS-NP, 1.111 µM	1.05 ± 0.013
KHOS-NP, 3.333 µM	0.996 ± 0.037
KHOS-NP, 10 µM	0.974 ± 0.012
MES-SA, 0.00017 µM	0.945 ± 0.025
MES-SA, 0.00051 µM	0.962 ± 0.039
MES-SA, 0.00152 µM	0.935 ± 0.022
MES-SA, 0.00457 µM	0.939 ± 0.035
MES-SA, 0.01372 µM	0.9423 ± 0.0085
MES-SA, 0.04115 µM	0.93 ± 0.017
MES-SA, 0.1235 µM	0.909 ± 0.025
MES-SA, 0.3704 µM	0.92 ± 0.021
MES-SA, 1.111 µM	0.868 ± 0.017
MES-SA, 3.333 µM	0.879 ± 0.019
MES-SA, 10 µM	0.887 ± 0.021
SK-LMS-1, 0.00017 µM	1.01 ± 0.047
SK-LMS-1, 0.00051 µM	1.02 ± 0.036
SK-LMS-1, 0.00152 µM	1.04 ± 0.048
SK-LMS-1, 0.00457 µM	1.04 ± 0.081
SK-LMS-1, 0.01372 µM	1.07 ± 0.024
SK-LMS-1, 0.04115 µM	1.05 ± 0.041
SK-LMS-1, 0.1235 µM	0.995 ± 0.02
SK-LMS-1, 0.3704 µM	0.997 ± 0.052
SK-LMS-1, 1.111 µM	0.929 ± 0.044
SK-LMS-1, 3.333 µM	1.04 ± 0.04
SK-LMS-1, 10 µM	1.013 ± 0.0086
SW684, 0.00017 µM	1.13 ± 0.031
SW684, 0.00051 µM	1.14 ± 0.06
SW684, 0.00152 µM	1.16 ± 0.052
SW684, 0.00457 µM	1.15 ± 0.057
SW684, 0.01372 µM	1.13 ± 0.049
SW684, 0.04115 µM	1.1 ± 0.1
SW684, 0.1235 µM	1.11 ± 0.051
SW684, 0.3704 µM	1.17 ± 0.071
SW684, 1.111 µM	1.24 ± 0.041
SW684, 3.333 µM	1.14 ± 0.035
SW684, 10 µM	1.16 ± 0.046
SW872, 0.00017 µM	1.01 ± 0.039
SW872, 0.00051 µM	0.994 ± 0.042
SW872, 0.00152 µM	0.992 ± 0.034
SW872, 0.00457 µM	1 ± 0.053
SW872, 0.01372 µM	1.01 ± 0.049
SW872, 0.04115 µM	0.997 ± 0.031
SW872, 0.1235 µM	1.01 ± 0.063
SW872, 0.3704 µM	1.04 ± 0.027
SW872, 1.111 µM	1.06 ± 0.017
SW872, 3.333 µM	1.07 ± 0.019
SW872, 10 µM	1.08 ± 0.035
SW1353, 0.00017 µM	0.973 ± 0.056
SW1353, 0.00051 µM	0.987 ± 0.023
SW1353, 0.00152 µM	0.958 ± 0.015
SW1353, 0.00457 µM	0.9936 ± 0.0062
SW1353, 0.01372 µM	0.9624 ± 0.0069
SW1353, 0.04115 µM	0.965 ± 0.026
SW1353, 0.1235 µM	0.96 ± 0.05
SW1353, 0.3704 µM	1.03 ± 0.048
SW1353, 1.111 µM	1.09 ± 0.016
SW1353, 3.333 µM	1.08 ± 0.044
SW1353, 10 µM	1.098 ± 0.0084
SYO-1, 0.00017 µM	0.931 ± 0.086
SYO-1, 0.00051 µM	0.925 ± 0.041
SYO-1, 0.00152 µM	0.919 ± 0.052
SYO-1, 0.00457 µM	0.96 ± 0.057
SYO-1, 0.01372 µM	0.963 ± 0.069
SYO-1, 0.04115 µM	0.94 ± 0.044
SYO-1, 0.1235 µM	0.961 ± 0.051
SYO-1, 0.3704 µM	1.01 ± 0.052
SYO-1, 1.111 µM	1.03 ± 0.054
SYO-1, 3.333 µM	0.981 ± 0.024
SYO-1, 10 µM	1.04 ± 0.045
VA-ES-BJ, 0.00017 µM	1.04 ± 0.073
VA-ES-BJ, 0.00051 µM	1.05 ± 0.053
VA-ES-BJ, 0.00152 µM	1.04 ± 0.032
VA-ES-BJ, 0.00457 µM	1.06 ± 0.017
VA-ES-BJ, 0.01372 µM	1.03 ± 0.066
VA-ES-BJ, 0.04115 µM	0.98 ± 0.094
VA-ES-BJ, 0.1235 µM	0.977 ± 0.1
VA-ES-BJ, 0.3704 µM	1.03 ± 0.047
VA-ES-BJ, 1.111 µM	1.04 ± 0.066
VA-ES-BJ, 3.333 µM	1.05 ± 0.02
VA-ES-BJ, 10 µM	1.04 ± 0.039
